Columns and labels:
[1] = test system: LPS-mediated TNF and IL6 production in whole blood; experiment: LPS-stimulated cytokine production in whole blood of patients with cachexia due to liver cirrhosis (in vitro application); assay type: cell-based, human; settings: 1 mg/ml UDCA, LPS 50 pg/ml, 4 hours
Description: We have tested the ability of ursodeoxycholic acid (UDCA, FALK Pharma GmbH) and BPi to inhibit LPS-mediated TNF production in whole blood of patients with cachexia.
(§1) We studied 4 patients with cachexia due to liver cirrhosis. The patients had all weight loss >7.5% compared to their previous normal weight. […] All patients were studied twice on 2 subsequent days (day “−1” and day “0”), see FIG. 9 to 12.
(§2) Methods: Heparinized whole blood was diluted 1:10 with medium+/−LPS (50 pg/ml), +/−BPI (1 μg/ml), and +/−UDCA (1 μg/ml-1 mg/ml) according to the manufactorer's recommendation (Milenia whole blood assay; DPC Biermann, Bad Nauheim, Germany) and incubated for 4 hours at 37° C. In the supernatant, we assessed concentrations of TNF and IL-6 using the semiautomated Immulite system (DPC-Biermann, Bad Nauheim, Germany).

[2] = test system: LPS-mediated TNF and IL6 production in whole blood; experiment: LPS-stimulated cytokine production in whole blood of healthy control subjects (Milenia whole blood assay); assay type: cell-based, human; settings: LPS 50 pg/ml
Description: as §2, with “We have tested the ability of ursodeoxycholic acid (UDCA, FALK Pharma GmbH) to inhibit LPS-mediated TNF production in whole blood of healthy control subjects. Methods:” for “Methods:”, “medium+/-LPS” for “medium+/−LPS”, “+/-BPI” for “+/−BPI”, “+/-UDCA ([…]” for “+/−UDCA (1 μg/ml-1”, “([…]” for “(Milenia”

[3] = test system: monocyte generated cytokine production in response to LPS; settings: in the concentrations used; Greve et al. Hepatology 1989; cited from earlier work
LPS effects [4] = settings: high concentrations of LBP, as seen during the acute phase response; cited from earlier work
[5] = test system: LPS-induced TNF synthesis in monocytes; experiment: LPS-induced TNF synthesis in monocytes with pre-incubated serum; assay type: cell-based, human
Description: LPS-induced cytokine synthesis can be inhibited by serum lipoproteins. However, this is not easily seen experimentally, as it needs a certain pre-incubation procedure (18 hours at 37° C.) that we developed in our laboratory.
Methodology for example 4, 5, 7, and 8: TNF assessment: ELISA established in the laboratory of Dr. Schumann using 2 monoclonal antibodies (Pharmingen Inc., USA). Recombinant LBP: produced in the lab of Dr. Schumann. Lipoproteins: isolated from sera of healthy young volunteers, isolated by density gradient centrifugation, monocytes isolated also from blood of healthy young volunteers
Again, serum lacking lipoproteins was unable to block LPS-induced TNF synthesis. The ability to block LPS-induced TNF synthesis could be restored by addition of isolated lipoproteins. […] Methodology as in example 4

LPS effects [6] = settings: high concentrations of LBP; cited from earlier work
[7] = test system: spontaneous production of TNF and IL6 of whole blood; experiment: Spontaneous production of TNF and IL6 in whole blood of patients with cachexia due to liver cirrhosis; assay type: cell-based, human; settings: BPi 1 μg/ml, 8 experiments, p<0.05
Description: as §1, §2

[8] = 100 μg/ml UDCA, whole blood of healthy control subjects, 4 hours
[9] = 1 mg/ml UDCA, whole blood of healthy control subjects diluted 1:10, 4 hours at 37° C.

Question: For `C[C@H](CCC(=O)O)[C@H]1CC[C@H]2[C@@H]3[C@@H](O)C[C@@H]4C[C@H](O)CC[C@]4(C)[C@H]3CC[C@]12C` [UDCA, ursodeoxycholic acid], which “reduction of LPS-stimulated TNF production (on average)” value ([1]; whole blood of 4 patients with cachexia due to liver cirrhosis) is on record?
Answer: The value was over 99%.

Question: What about the “reduction of LPS-stimulated IL6 production (on average)” value ([1]; whole blood of patients with cachexia due to liver cirrhosis) of the same molecule?
Answer: Its value is 97%.

Question: And the “reduction of LPS-stimulated IL6 production” value [2, 8]?
Answer: Its value is 43%.

Question: And the “reduction of LPS-stimulated TNF production” value [2, 8]?
Answer: Its value is 68%.

Question: What about the “reduction of LPS-stimulated IL6 production” value [2, 9] of the same molecule?
Answer: Its value is over 95%.

Question: What about the “reduction of LPS-stimulated TNF production” value [2, 9] of the same molecule?
Answer: Its value is over 95%.

Question: With `C[C@H](CCC(=O)O)[C@H]1CC[C@H]2[C@@H]3[C@H](O)C[C@@H]4C[C@H](O)CC[C@]4(C)[C@H]3CC[C@]12C` [chenodeoxycholic acid] as the molecule, how does the “effectiveness on monocyte generated cytokine production in response to LPS” value [3] read?
Answer: Its value is “less effective”.

B1: LBP: serum protein which binds to LPS; recombinant LBP produced in the lab of Dr. Schumann (protein, UniProt P18428 26-481, looked up)
Lipopolysaccharide-binding …: ANPGLVARITDKGLQYAAQEGLLALQSELLRITLPDFTGDLRIPHVGRGRYEFHSLNIHSCELLHSALRPVPGQGLSLSISDSSIRVQGRWKVRKSFFKLQGSFDVSVKGISISVNLLLGSESSGRPTVTASSCSSDIADVEVDMSGDLGWLLNLFHNQIESKFQKVLESRICEMIQKSVSSDLQPYLQTLPVTTEIDSFADIDYSLVEAPRATAQMLEVMFKGEIFHRNHRSPVTLLAAVMSLPEEHNKMVYFAISDYVFNTASLVYHEEGYLNFSITDDMIPPDSNIRLTTKSFRPFVPRLARLYPNMNLELQGSVPSAPLLNFSPGNLSVDPYMEIDAFVLLPSSSKEPVFRLSVATNVSATLTFNTSKITGFLKPGKVKVELKESKVGLFNAELLEALLNYYILNTFYPKFNDKLAEGFPLPLLKRVQLYDLGLQIHKDFLFLGANVQYMRV
Question: Which “blocking of LPS effects in vitro” value (LPS effects [4]) does the source give for B1 here?
Answer: The value was “completely block LPS effects”.

Question: What about the “LPS-stimulated TNF production in a monocyte stimulation system” value ([5]; high concentrations added to normal serum (containing lipoproteins)) of the same molecule?
Answer: Its value is “reduces LPS-stimulated TNF production”.

Question: What about the “inhibition of LPS activity (LPS-induced TNF production)” value ([5]; titrated into lipoprotein-deficient serum, high levels of LBP) of the same molecule?
Answer: Its value is “inhibit LPS activity”.

Question: And the “blocking of LPS effects in a murine sepsis model” value (LPS effects [6])?
Answer: Its value is “completely block LPS effects”.

B2: BPi: protein found in human white blood cells that binds to and neutralises endotoxin (protein, UniProt P17213 32-487, looked up)
Bactericidal …: VNPGVVVRISQKGLDYASQQGTAALQKELKRIKIPDYSDSFKIKHLGKGHYSFYSMDIREFQLPSSQISMVPNVGLKFSISNANIKISGKWKAQKRFLKMSGNFDLSIEGMSISADLKLGSNPTSGKPTITCSSCSSHINSVHVHISKSKVGWLIQLFHKKIESALRNKMNSQVCEKVTNSVSSELQPYFQTLPVMTKIDSVAGINYGLVAPPATTAETLDVQMKGEFYSENHHNPPPFAPPVMEFPAAHDRMVYLGLSDYFFNTAGLVYQEAGVLKMTLRDDMIPKESKFRLTTKFFGTFLPEVAKKFPNMKIQIHVSASTPPHLSVQPTGLTFYPAVDVQAFAVLPNSSLASLFLIGMHTTGSMEVSAESNRLVGELKLDRLLLELKHSNIGPFPVELLQDIMNYIVPILVLPRVNEKLQKGFPLPTPARVQLYNVVLQPHQNFLLFGADVVYK
Question: With B2 as the molecule, how does the “spontaneous production of IL6 of whole blood” value [7] read?
Answer: Its value is “reduced significantly”.

Question: And the “spontaneous production of TNF of whole blood” value [7]?
Answer: The value was “reduced significantly”.

Source: patent US20090197851A1, “THERAPY AND USE OF COMPOUNDS IN THERAPY” (MAX-DELBRUCK-CENTRUM FUR MOLEKULARE MEDIZIN, priority 1999, published 2009)
